Tested on: Endogenous Huntingtin Protein
Assay: Endogenous Huntingtin Protein Assay (Meso Scale Discovery ELISA-based electrochemiluminescence)
Type: cell-based
Settings: MSD plates coated with MW1 (expanded polyglutamine) or MAB2166 capture antibody; lysates
In short: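 MSD electrochemiluminescence sandwich ELISA: MW1 (expanded polyQ) or MAB2166 capture antibody at 1 μg/mL, samples incubated overnight at 4° C. Detection with rabbit monoclonal #5656S then SULFO-TAG anti-rabbit antibody, each 0.25 μg/mL for 1 h at room temperature.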

IC50 [nM]	Structure (SMILES)
≤ 100	CC1(C)CC(n2ncc3cc(-c4ccc(-c5ccncc5)cc4O)nnc32)CC(C)(C)N1 [Cpd 165, 5-(pyridin-4-yl)-2-[1-(2,2,6,6-tetramethylpiperidin-4-yl)-1H-pyrazolo[3,4-c]pyridazin-5-yl]phenol]
100 to 500	CC1(C)CC(n2ncc3cc(-c4ccc(-c5cccnc5)cc4O)nnc32)CC(C)(C)N1 [Cpd 166, 5-(pyridin-3-yl)-2-[1-(2,2,6,6-tetramethylpiperidin-4-yl)-1H-pyrazolo[3,4-c]pyridazin-5-yl]phenol]
1000 to 3000	CC1(C)CC(n2ncc3cc(-c4ccc(-c5cncnc5)cc4O)nnc32)CC(C)(C)N1 [Cpd 167, 5-(pyrimidin-5-yl)-2-[1-(2,2,6,6-tetramethylpiperidin-4-yl)-1H-pyrazolo[3,4-c]pyridazin-5-yl]phenol]
≤ 100	CC1(C)C[C@@H](n2nnc3cc(-c4ccc(-c5cn[nH]c5)cc4O)nnc32)[C@H](F)C(C)(C)N1 [Cpd 168, 2-{3-[(3S,4R)-3-fluoro-2,2,6,6-tetramethylpiperidin-4-yl]-3H-[1,2,3]triazolo[4,5-c]pyridazin-6-yl}-5-(1H-pyrazol-4-yl)phenol]
≤ 100	Cn1ccc(-c2ccc(-c3cc4cnn(C5CC(C)(C)NC(C)(C)C5)c4nn3)c(O)c2)n1 [Cpd 169, 5-(1-methyl-1H-pyrazol-3-yl)-2-[1-(2,2,6,6-tetramethylpiperidin-4-yl)-1H-pyrazolo[3,4-c]pyridazin-5-yl]phenol]
1000 to 3000	CC(C)(C)NC1CC(n2nnc3cc(-c4ccc(-c5cn[nH]c5)cc4O)nnc32)C1 (stereo not drawn) [Cpd 170, 2-{3-[3-(tert-butylamino)cyclobutyl]-3H-[1,2,3]triazolo[4,5-c]pyridazin-6-yl}-5-(1H-pyrazol-4-yl)phenol]
100 to 500	Cn1ccc(-c2ccc(-c3cc4nnn([C@H]5CC(C)(C)NC(C)(C)[C@H]5F)c4nn3)c(O)c2)cc1=O [Cpd 171, 4-(4-{3-[(3S,4S)-3-fluoro-2,2,6,6-tetramethylpiperidin-4-yl]-3H-[1,2,3]triazolo[4,5-c]pyridazin-6-yl}-3-hydroxyphenyl)-1-methylpyridin-2(1H)-one]
100 to 500	Cn1cnc(-c2ccc(-c3cc4nnn([C@H]5CC(C)(C)NC(C)(C)[C@H]5F)c4nn3)c(O)c2)cc1=O [Cpd 172, 6-(4-{3-[(3S,4S)-3-fluoro-2,2,6,6-tetramethylpiperidin-4-yl]-3H-[1,2,3]triazolo[4,5-c]pyridazin-6-yl}-3-hydroxyphenyl)-3-methylpyrimidin-4(3H)-one]
≤ 100	CC1(C)C[C@H](n2nnc3cc(-c4ccc(-c5c[nH]nc5F)cc4O)nnc32)[C@H](F)C(C)(C)N1 [Cpd 173, 5-(3-fluoro-1H-pyrazol-4-yl)-2-{3-[(3S,4S)-3-fluoro-2,2,6,6-tetramethylpiperidin-4-yl]-3H-[1,2,3]triazolo[4,5-c]pyridazin-6-yl}phenol]
≤ 100	CC1(C)CC(n2ncc3cc(-c4ccc(-n5nccn5)cc4O)nnc32)CC(C)(C)N1 [Cpd 174, 2-[1-(2,2,6,6-tetramethylpiperidin-4-yl)-1H-pyrazolo[3,4-c]pyridazin-5-yl]-5-(2H-1,2,3-triazol-2-yl)phenol]
500 to 1000	CC(C)(C)NC1CCC(n2nnc3cc(-c4ccc(-c5cn[nH]c5)cc4O)nnc32)C1 (stereo not drawn) [Cpd 175, 2-{3-[3-(tert-butylamino)cyclopentyl]-3H-[1,2,3]triazolo[4,5-c]pyridazin-6-yl}-5-(1H-pyrazol-4-yl)phenol]
≤ 100	CC1(C)CC(n2ccc3cc(-c4ccc(-n5nccn5)cc4O)nnc32)CC(C)(C)N1 [Cpd 176, 2-[7-(2,2,6,6-tetramethylpiperidin-4-yl)-7H-pyrrolo[2,3-c]pyridazin-3-yl]-5-(2H-1,2,3-triazol-2-yl)phenol]

From patent US11858941B2, “Heterocyclic and heteroaryl compounds for treating Huntington's disease” (PTC THERAPEUTICS, INC., priority 2018, dated 2024)
